Results from patent publication US20040137454A1, “Assay for drug-induced recoding” (priority 2004, published 2004).

How the values were obtained:
[1] = test system: endogenous antizyme; test: Endogenous antizyme levels measured as ODC-inhibitory activity in HEK293 cell extracts; assay type: cell-based, human; conditions: HEK293 cells, 24 hours; for Antizyme: 1 mM aminoguanidine
Description: The endogenous antizyme levels were also measured for comparison. HEK293 cells were plated in 10 cm dishes with 10 ml of the growth media as described above at a concentration of 3×10^5 cells/ml and incubated for 24 hours. The medium was replaced with fresh medium supplemented with 1 mM aminoguanidine and various concentrations of either putrescine, spermidine, or spermine. The dishes were incubated further for 24 hours, placed on ice, washed with phosphate buffered saline twice, drained completely, and cells were disrupted by 3 freeze/thaw cycles. Then 0.5 ml of cell extract buffer (25 mM Tris-HCl, pH 7.2, 1 mM dithiothreitol, 1 mM EDTA, and 0.01% Tween 80) was added, and the cell suspension was centrifuged at 15,000 rpm for 30 minutes at 4° C. Antizyme activities were measured as ODC-inhibitory activities that could be reversed by excess antizyme inhibitor. Cell extracts (40 μl) were mixed with 2.0 units of mouse kidney ODC in duplicate. To one set, 0.1 μg of GST-antizyme inhibitor protein was added. ODC activity of each mixture was assayed by measuring the release of ^14CO2 from L-[1-^14C] ornithine (as described in I. P. Ivanov et al., Discovery of a Spermatogenesis Stage-specific Ornithine Decarboxylase Antizyme: Antizyme 3, 97 Proc. Nat'l Acad. Sci. USA 97, 4808-4813 (2000); I. P. Ivanov et al., Conservation of Polyamine Regulation by Translational Frameshifting from Yeast to Mammals, 19 EMBO J. 1907-1917 (2000); S. Matsufuji et al., Reading Two Bases Twice: Mammalian Antizyme Frameshifting in Yeast, 15 EMBO J. 1360-1370 (19%)), and expressed as specific activities. Protein concentrations of the extracts were determined with the BCA protein assay kit (Pierce) using bovine serum albumin as a standard. One unit of ODC and antizyme was defined as the activity releasing […] CO2 per hour and the activity inhibiting 1 unit of ODC, respectively.

[2] = test system: antizyme 1 polyamine-regulated frameshifting sequence; test: Dual luciferase reporter assay of antizyme 1 +1 frameshifting (p2Lucaz1) in transfected cells; assay type: cell-based, human; conditions: for Maximal frameshifting stimulation: HEK293, standard growth conditions without DFMO, 0.01-0.1 mM spermine, 0.1-2 mM spermidine, 0.5-2 mM putrescine; for Fold increase of antizyme 1 frameshifting upon polyamine addition to DFMO pre-treated cells: HEK293 pre-treated with DFMO, 0.1 mM spermine, 2 mM spermidine, 2 mM putrescine; for Effect on amount of frameshifting, p2Lucaz1: cultured mammalian cells, controls 2.5 mM DFMO
Excerpt: Referring now to FIG. 2, the construction of illustrative embodiments of the dual reporter assay constructs is depicted. These illustrative embodiments use the renilla and firefly luciferases as first and second reporters, respectively. […] Pat. […] The shift site (TCCT), corresponding to UCCU in the corresponding mRNA, is present at nucleotides 55-58 of each of these sequences. […] Zero frame (“0 frame”) controls for each construct were identical except that the first T of the stop codon following the shift site was deleted. It will be appreciated that the DNA constructs disclosed herein are merely examples of dual reporter constructs comprising two reporter-encoding DNA segments separated by a cloning site containing a polyamine-regulated frameshifting sequence, and that all such constructs are included within the scope of the present invention. Cultured mammalian cells are transfected with the dual construct according to method well known in the art. Parallel cell lines are transfected with the +1 reading frame and 0 reading frame construct according to methods well known in the art. The cells are then incubated under varying conditions to test the effect of such conditions on the polyamine regulation. Cells are then lysed and the luciferase activity measured by light emission after injection of luminescence substrate, as is well known in the art. […] This provides a quantitative assay for measuring the polyamine-induced recoding. […] Similarly, mouse germ line (GC-2) cells were obtained from the American Tissue Type culture Collection (Manassas, Va.). […] All cells were incubated at 37° C. in an atmosphere of 5% CO2 All media and antibiotics were obtained from Invitrogen Life Technologies (Carlsbad, Calif.), and all sera were obtained from HyClone Inc. (Logan Utah). The cells were transfected with the dual luciferase constructs p2Lucaz1 and p2Lucaz2 using LIPOFECTIN reagent (Invitrogen Life Technologies). LIPOFECTIN reagent is a 1:1 (w/w) liposome formulation of the cationic lipid […],-trimethylammonium chloride (DOTMA), and dioleoyl phosphotidylethanolamine (DOPE) in membrane filtered water. Cells (0.3×10^5) were plated in 48-well, treated tissue culture plates and grown for 48 hours as described above. DFMO (2.5 mM) was added to half the plates of each cell line to inhibit polyamine synthesis. […] Cells were lysed using passive lysis buffer and luciferase activity was determined using the Dual Luciferase reporter assay (Promega, Madison, Wis.) as described in Grentzmann, supra. For all reactions, light emission was measure between 2 and 12 seconds after 100 μl of luminescence substrate was injected.

[3] = test system: antizyme 1 and 2 frameshifting sequences with upstream stimulatory sequences deleted; test: Dual luciferase frameshifting assay, upstream deletion constructs p2Lucaz1usdel and p2Lucaz2usdel; assay type: cell-based, human; conditions: 1 mM spermidine added to DFMO (2.5 mM) treated HEK293 cells
Excerpt: (§1) Referring now to FIG. 2, the construction of illustrative embodiments of the dual reporter assay constructs is depicted. These illustrative embodiments use the renilla and firefly luciferases as first and second reporters, respectively. The sequences referred to herein as SEQ ID NO:1 and SEQ ID NO:2, which comprise antizyme 1 and 2 polyamine-regulated frameshifting sequences, respectively, were cloned into the SalI and BamHI sites of the p2Luc vector (U.S. Pat. No. 6,143,502) to produce plasmids p2Lucaz1 and p2Lucaz2. The shift site (TCCT), corresponding to UCCU in the corresponding mRNA, is present at nucleotides 55-58 of each of these sequences. […]
(§2) To determine the effectiveness of the role of sequences flanking the frameshift site in inducing frameshifting levels, dual luciferase constructs were made in which antizyme sequences preceding and following the antizyme 1 and 2 frameshift sites were deleted. […] As described above, these constructs were then transiently transfected into HEK293 cells grown in standard growth nedia or media with 2.5 mM DFMO, and frameshift levels were measured following the addition of exogenously added spermidine (1 mM).

[4] = test system: antizyme 2 polyamine-regulated frameshifting sequence; test: Dual luciferase reporter assay of antizyme 2 +1 frameshifting (p2Lucaz2) in transfected cells; assay type: cell-based, human; conditions: for Effect on amount of frameshifting, p2Lucaz2: cultured mammalian cells, controls 2.5 mM DFMO
Excerpt: Referring now to FIG. 2, the construction of illustrative embodiments of the dual reporter assay constructs is depicted. These illustrative embodiments use the renilla and firefly luciferases as first and second reporters, respectively. The sequences referred to herein as SEQ ID NO:1 and SEQ ID NO:2, which comprise antizyme 1 and 2 polyamine-regulated frameshifting sequences, respectively, were cloned into the SalI and BamHI sites of the p2Luc vector (U.S. Pat. No. 6,143,502) to produce plasmids p2Lucaz1 and p2Lucaz2. The shift site (TCCT), corresponding to UCCU in the corresponding mRNA, is present at nucleotides 55-58 of each of these sequences. Constructs were also prepared with deletions of the upstream stimulatory sequences of the antizyme 1 polyamine-regulated frameshifting sequence (SEQ ID NO:3) and the antizyme 2 polyamine-regulated frameshifting sequence (SEQ ID NO:4), resulting in plasmids p2Lucaz1usdel and p2Lucaz2usdel. Other constructs were prepared with deletions of the downstream pseudoknot stimulatory sequences of the antizyme 1 polyamine-regulated frameshifting sequence (SEQ ID NO:5) and the antizyme 2 polyamine-regulated frameshifting sequence (SEQ ID NO:6), resulting in plasmids p2Lucaz1pkdel and p2Lucaz2pkdel. Zero frame (“0 frame”) controls for each construct were identical except that the first T of the stop codon following the shift site was deleted. […]
Cultured mammalian cells are transfected with the dual construct according to method well known in the art. Parallel cell lines are transfected with the +1 reading frame and 0 reading frame construct according to methods well known in the art. […] Cells are then lysed and the luciferase activity measured by light emission after injection of luminescence substrate, as is well known in the art. […] This provides a quantitative assay for measuring the polyamine-induced recoding. […]

[5] = test system: HEK293 cells; test: Intracellular polyamine levels by HPLC analysis of whole cell lysates; assay type: cell-based, human
Description: Polyamine levels were also measured for comparison. Intracellular polyamine levels were determined by HPLC analysis of whole cell lysates. Cells (3×10^5) were grown in 6-well plates for 48 hours at 37° C. in an atmosphere of 5% CO2, either in the presence or absence of DFMO. Cells were then mock transfected as described above. […] Cells were allowed to grow for 12 hours, and 5×10^6 cells were harvested and washed three times with phosphate buffered saline.

[6] = test system: antizyme 1 and 2 frameshifting sequences with downstream pseudoknot deleted; test: Dual luciferase frameshifting assay, downstream pseudoknot deletion constructs p2Lucaz1pkdel and p2Lucaz2pkdel; assay type: cell-based, human; conditions: 1 mM spermidine added to DFMO (2.5 mM) treated HEK293 cells
Excerpt: as §1, §2

[7] = test system: antizyme 3 frameshifting sequence; test: Dual luciferase reporter assay with p2Luc containing the antizyme 3 frameshifting sequence; assay type: cell-based; conditions: cultured mammalian cells, controls 2.5 mM DFMO

NCCCCN [Putrescine, putrescine]
Fold Increase (antizyme vs control) ([1]; 2 mM exogenous polyamine): 1.5 | Antizyme ([1]; 2 mM exogenous polyamine): 3.0 ± 0.7 units/mg | Maximal frameshifting stimulation [2]: approximately 40% | Fold increase of antizyme 1 frameshifting upon polyamine addition to DFMO pre-treated cells [2]: ~10 fold

NCCCCNCCCN [Spermidine, spermidine]
Stimulation of frameshifting, upstream deletion constructs [3]: 5-6 fold | Fold Increase (antizyme vs control) ([1]; 1 mM exogenous polyamine): 1.1 | Antizyme ([1]; 1 mM exogenous polyamine): 23 ± 0.2 units/mg | Fold Increase (antizyme vs control) ([1]; 2 mM exogenous polyamine): 1.6 | Antizyme ([1]; 2 mM exogenous polyamine): 3.4 units/mg | Maximal frameshifting stimulation [2]: approximately 40% | Fold increase of antizyme 1 frameshifting upon polyamine addition to DFMO pre-treated cells [2]: ~10 fold | Antizyme 2 frameshifting response compared with antizyme 1 ([4]; HEK293, with or without DFMO, FIG. 4): showed a very similar response to polyamine depletion and addition | Increase of intracellular spermidine levels over control cells ([5]; 1 mM spermidine added to DFMO treated HEK293 cells): 1.5 fold | Effect on intracellular putrescine and spermine levels ([5]; 1 mM spermidine added to DFMO treated or untreated HEK293 cells): restored putrescine and spermine levels to nearly that of control cells | Increase of intracellular spermidine levels over control cells ([5]; 1 mM spermidine added to untreated (no DFMO) HEK293 cells): 1.7 fold | Stimulation of frameshifting, downstream (pseudoknot) deletion constructs [6]: approximately 2 fold

NCCCNCCCCNCCCN [Spermine, spermine]
Fold Increase (antizyme vs control) ([1]; 0.4 mM exogenous polyamine): 1.2 | Antizyme ([1]; 0.4 mM exogenous polyamine): 2.6 ± 0.5 units/mg | Fold Increase (antizyme vs control) ([1]; 0.8 mM exogenous polyamine): 1.4 | Antizyme ([1]; 0.8 mM exogenous polyamine): 3.0 ± 0.6 units/mg | Maximal frameshifting stimulation [2]: approximately 40% | Fold increase of antizyme 1 frameshifting upon polyamine addition to DFMO pre-treated cells [2]: ~10 fold

N=C(N)NCCCCN [agmatine]
Effect on amount of frameshifting, antizyme 3 frameshifting sequence ([7]; 0-16 mM agmatine, FIG. 7A): no increase in frameshifting was observed | Effect on amount of frameshifting, p2Lucaz1 ([2]; 0-16 mM agmatine, FIG. 7A): significantly increased the amount of frameshifting observed | Effect on amount of frameshifting, p2Lucaz2 ([4]; 0-16 mM agmatine, FIG. 7A): significantly increased the amount of frameshifting observed

NCCCCCN [cadaverine]
Effect on amount of frameshifting, antizyme 3 frameshifting sequence ([7]; 0-32 mM cadaverine, FIG. 7B): no increase in frameshifting was observed | Effect on amount of frameshifting, p2Lucaz1 ([2]; 0-32 mM cadaverine, FIG. 7B): effective for significantly increasing the amount of frameshifting observed | Effect on amount of frameshifting, p2Lucaz2 ([4]; 0-32 mM cadaverine, FIG. 7B): effective for significantly increasing the amount of frameshifting observed
